Source: patent US11873287B2, “Piperidine-2,6-dione derivatives and ulcerative colitis treating” (TIANJIN HEMAY PHARMACEUTICAL SCI-TECH CO., LTD, priority 2016, dated 2024)

Key:
[1] = system: DSS-Induced inflammatory Bowel Disease Models in Mice; assay: DSS-induced inflammatory bowel disease model in mice (Biological Example 4, 1.3% DSS); type: in vivo, C57BL/6 mice; settings: 30 mg/Kg i.g. Q.D; for Average Length of Colon (Mean ± SD) / Inhibitory Rate of Colonic Reduction: 1.3% DSS days 0-5
Method: (§1) 40 healthy female C57BL/6 mice having weight of 16-19 g were randomly divided into 4 groups in accordance with weight. There were 10 mice in each group (see Table 6 below). The first day of the experiment was recorded as Day 0. The administration regimen and induction regimen were detailed in Table 6. The change in weight of experimental animals was recorded every day. […] Samples of animal colonic tissues were obtained to measure the length. One-way ANOVA analysis of mice weights was performed by SPSS22. Statistical analyses between groups were performed. Mann-Whitney U non-parametric test was performed on the length of colon.
The experimental method used in the present biological example is identical to those in Biological Example 3.
(§2) Calculation Formula of Inhibitory Rate of Colonic Reduction: (Length of Colon in Administration Group−Length of Colon in Model Group)/(Length of Colon in Blank Group−Length of Colon in Model Group)

ICR mice = assay: Acute toxicity experiment of single oral administration in mice; type: in vivo; settings: 1000 mg/Kg single oral dose
Method: The mice were fasted one day before the experiment. On the day of the experiment, 6 mice (ICR mice, body weight of 19-21 g, three females and three males) were selected in each experiment group. First of all, one female and one male were selected to orally give 1000 mg/Kg, and observed for 5-10 minutes. If there were no obvious side effects, the remaining 4 animals were orally given the same dose, and observed for 10-15 minutes. If no animal died, the animals were placed in a box to balancedly feed for 7 days. The state was observed and the body weight was recorded daily.
Observation Indexes within 0-15 Minutes After Administration
Activity: restlessness, hyperactivity
Nervous system response: tremor, spasm, convulsion, ataxia, posture abnormality, etc.
Autonomic nerve: exophthalmos, salivation, tears, urination (hematuria), diarrhea, piloerection, breathing, etc.
Observation Indexes Over 7 Days
State of Animal: lethargy, hyperactivity, excitement, hair loss, diarrhea, abnormal behavior, death, etc.

[2] = system: DSS-Induced inflammatory Bowel Disease Models in Mice; assay: DSS-induced inflammatory bowel disease model in mice (Biological Example 3, 1.0-1.5% DSS); type: in vivo, C57BL/6 mice; settings: 30 mg/Kg i.g. Q.D
Method: as §1, §2

[3] = DSS 1.0% days 0-4, 1.5% days 5-9

Row | Compound | Average Length of Colon (Mean ± SD) [1] | Inhibitory Rate of Colonic Reduction [1] | Weights of Experimental Mice (Mean ± SD) ([1]; Day 0) | Weights of Experimental Mice (Mean ± SD) ([1]; Day 1) | Weights of Experimental Mice (Mean ± SD) ([1]; Day 2) | Weights of Experimental Mice (Mean ± SD) ([1]; Day 3) | Weights of Experimental Mice (Mean ± SD) ([1]; Day 4) | Weights of Experimental Mice (Mean ± SD) ([1]; Day 5) | Weights of Experimental Mice (Mean ± SD) ([1]; Day 6) | Weights of Experimental Mice (Mean ± SD) ([1]; Day 7) | Weights of Experimental Mice (Mean ± SD) ([1]; Day 8) | Weights of Experimental Mice (Mean ± SD) ([1]; Day 9) | Daily Body Weight of Tested Female Mice (Mean ± SD) (ICR mice; Day 1) | Daily Body Weight of Tested Male Mice (Mean ± SD) (ICR mice; Day 1) | Daily Body Weight of Tested Female Mice (Mean ± SD) (ICR mice; Day 2) | Daily Body Weight of Tested Male Mice (Mean ± SD) (ICR mice; Day 2) | Daily Body Weight of Tested Female Mice (Mean ± SD) (ICR mice; Day 3) | Daily Body Weight of Tested Male Mice (Mean ± SD) (ICR mice; Day 3) | Daily Body Weight of Tested Female Mice (Mean ± SD) (ICR mice; Day 4) | Daily Body Weight of Tested Male Mice (Mean ± SD) (ICR mice; Day 4) | also measured
1 | CNc1cccc2c1C(=O)N(C1CCC(=O)N(CCOC)C1=O)C2=O (stereo not shown) [Example 2, 4-methylamino-2-(1-(2-methoxyethyl)-2,6-dioxopiperidin-3-yl)isoindolin-1,3-dione] | 6.9 ± 0.2 cm | 66.7% | 20.1 ± 0.8 g | 20.0 ± 0.7 g | 19.8 ± 0.6 g | 20.2 ± 0.8 g | 20.2 ± 0.8 g | 20.0 ± 0.6 g | 18.9 ± 0.6 g | 18.8 ± 0.7 g | 18.8 ± 1.0 g | 19.0 ± 1.1 g | 19.2 ± 0.5 g | 18.6 ± 0.5 g | 22.7 ± 0.6 g | 24.1 ± 0.4 g | 23.2 ± 0.5 g | 24.7 ± 0.2 g | 23.2 ± 0.5 g | 24.7 ± 0.2 g | Daily Body Weight of Tested Female Mice (Mean ± SD) (ICR mice; Day 5): 24.4 ± 0.2 g; Daily Body Weight of Tested Male Mice (Mean ± SD) (ICR mice; Day 5): 26.2 ± 0.6 g; Daily Body Weight of Tested Female Mice (Mean ± SD) (ICR mice; Day 6): 24.6 ± 1.1 g; Daily Body Weight of Tested Male Mice (Mean ± SD) (ICR mice; Day 6): 28.8 ± 0.5 g; Daily Body Weight of Tested Female Mice (Mean ± SD) (ICR mice; Day 7): 24.5 ± 1.9 g; Daily Body Weight of Tested Male Mice (Mean ± SD) (ICR mice; Day 7): 29.2 ± 0.8 g; Summary of toxic response of tested animals in 7 Days (ICR mice; Female): Abnormality was not observed in 7 days of the test; Summary of toxic response of tested animals in 7 Days (ICR mice; Male): Slight abnormality of activity was occasionally observed in two
2 | Nc1cccc2c1C(=O)N(C1CCC(=O)N(CCO)C1=O)C2=O (stereo not shown) [Example 6, 4-amino-2-(1-(2-hydroxyethyl)-2,6-dioxopiperidin-3-yl)isoindolin-1,3-dione] | 6.9 ± 0.3 cm | 66.7% | 19.8 ± 0.6 g | 19.9 ± 0.7 g | 19.7 ± 0.7 g | 20.0 ± 0.6 g | 20.0 ± 0.6 g | 19.9 ± 0.7 g | 19.5 ± 0.6 g | 19.4 ± 0.8 g | 19.5 ± 0.7 g | 19.6 ± 1.1 g | 17.5 ± 0.9 g | 18.4 ± 0.6 g | 21.5 ± 0.9 g | 21.5 ± 0.9 g | 21.6 ± 1.3 g | 21.6 ± 1.3 g | 22.0 ± 1.2 g | 25.5 ± 0.5 g | Daily Body Weight of Tested Female Mice (Mean ± SD) (ICR mice; Day 5): 22.3 ± 1.9 g; Daily Body Weight of Tested Male Mice (Mean ± SD) (ICR mice; Day 5): 25.9 ± 0.9 g; Daily Body Weight of Tested Female Mice (Mean ± SD) (ICR mice; Day 6): 22.4 ± 2.3 g; Daily Body Weight of Tested Male Mice (Mean ± SD) (ICR mice; Day 6): 26.9 ± 1.1 g; Daily Body Weight of Tested Female Mice (Mean ± SD) (ICR mice; Day 7): 22.9 ± 2.0 g; Daily Body Weight of Tested Male Mice (Mean ± SD) (ICR mice; Day 7): 27.1 ± 1.1 g; Summary of toxic response of tested animals in 7 Days (ICR mice; Female): Abnormality was not observed in 7 days of the test; Summary of toxic response of tested animals in 7 Days (ICR mice; Male): Abnormality was not observed in 7 days of the test
3 | COCCN1C(=O)CCC(N2C(=O)c3ccc(N)cc3C2=O)C1=O (stereo not shown) [Example 7, 5-amino-2-(1-(2-methoxyethyl)-2,6-dioxopiperidin-3-yl)isoindolin-1,3-dione] | – | – | – | – | – | – | – | – | – | – | – | – | – | – | – | – | – | – | – | – | body weights compared with model control group [2]: higher than that of the model control group; Average Length of Colon (Mean ± SD) [2, 3]: 6.4 ± 0.4 cm; Inhibitory Rate of Colonic Reduction [2, 3]: 63.6%; Body Weights of Experimental Mice (Mean ± SD) ([2]; Day 0): 17.4 ± 0.8 g; Body Weights of Experimental Mice (Mean ± SD) ([2]; Day 1): 17.5 ± 0.7 g; Body Weights of Experimental Mice (Mean ± SD) ([2]; Day 2): 18.2 ± 0.8 g; Body Weights of Experimental Mice (Mean ± SD) ([2]; Day 3): 17.8 ± 0.8 g; Body Weights of Experimental Mice (Mean ± SD) ([2]; Day 4): 17.7 ± 0.7 g; Body Weights of Experimental Mice (Mean ± SD) ([2]; Day 5): 17.9 ± 0.8 g; Body Weights of Experimental Mice (Mean ± SD) ([2]; Day 6): 17.8 ± 0.8 g; Body Weights of Experimental Mice (Mean ± SD) ([2]; Day 7): 17.9 ± 0.8 g; Body Weights of Experimental Mice (Mean ± SD) ([2]; Day 8): 17.4 ± 0.7 g; Body Weights of Experimental Mice (Mean ± SD) ([2]; Day 9): 17.4 ± 0.7 g; Body Weights of Experimental Mice (Mean ± SD) ([2]; Day 10): 16.8 ± 0.9 g; Body Weights of Experimental Mice (Mean ± SD) ([2]; Day 11): 16.8 ± 1.0 g; Body Weights of Experimental Mice (Mean ± SD) ([2]; Day 12): 17.3 ± 1.0 g
4 | CCOCCN1C(=O)CCC(N2C(=O)c3cccc(N)c3C2=O)C1=O (stereo not shown) [Example 19, 4-amino-2-(1-(2-ethoxyethyl)-2,6-dioxopiperidin-3-yl)isoindolin-1,3-dione] | 6.9 ± 0.4 cm | 66.7% | 19.6 ± 0.7 g | 19.6 ± 0.8 g | 19.7 ± 0.7 g | 19.9 ± 0.7 g | 20.0 ± 0.7 g | 19.7 ± 0.5 g | 19.2 ± 0.7 g | 18.9 ± 0.8 g | 19.0 ± 1.0 g | 19.4 ± 0.8 g | 18.0 ± 0.6 g | 18.9 ± 1.2 g | 20.7 ± 1.1 g | 20.7 ± 1.1 g | 21.3 ± 0.6 g | 21.3 ± 0.6 g | 22.8 ± 0.3 g | 25.0 ± 2.0 g | Daily Body Weight of Tested Female Mice (Mean ± SD) (ICR mice; Day 5): 23.2 ± 0.7 g; Daily Body Weight of Tested Male Mice (Mean ± SD) (ICR mice; Day 5): 24.8 ± 1.9 g; Daily Body Weight of Tested Female Mice (Mean ± SD) (ICR mice; Day 6): 23.3 ± 1.2 g; Daily Body Weight of Tested Male Mice (Mean ± SD) (ICR mice; Day 6): 26.5 ± 1.9 g; Daily Body Weight of Tested Female Mice (Mean ± SD) (ICR mice; Day 7): 23.0 ± 1.7 g; Daily Body Weight of Tested Male Mice (Mean ± SD) (ICR mice; Day 7): 27.7 ± 2.2 g; Summary of toxic response of tested animals in 7 Days (ICR mice; Female): Severe motor dysfunction in three animals was observed 30; Summary of toxic response of tested animals in 7 Days (ICR mice; Male): Severe motor dysfunction in two animals was observed 30
